The results in this text go back to patent US11203608B2, “Platinum-containing compounds, and related compositions and uses thereof” (Massachusetts Institute of Technology, priority 2019, dated 2021).

This data set in a line: Solubility and stability in organic solvents (observed during NMR). The data set is classed as physicochemical. On the procedure:
To a stirred solution of K2PtCl4 (41.5 mg, 0.100 mmol) in water (30 mL), a solution of 9 bis(trifluoroacetic acid) salt (77.0 mg, 0.100 mmol) in water (9 mL) was added in one portion. Red precipitate formed immediately. The reaction was stirred at room temperature for 24 h. To the same solution was added AgNO3 aq. solution (0.10 M, 4.0 mL). The reaction was stirred at room temperature for 24 h. To this mixture was then added K2C2O4 aq. solution (0.20 M, 0.50 mL). The reaction was stirred at room temperature for 24 h. The reaction mixture was lyophilized together with a small amount of C18-reversed phase silica gel. […] The multiplicity of some ^1H NMR signals were not determined due to overlap. […] Due to the relatively low concentration of 12 in […], only part of the ^13C NMR signals were detected through ^13C-^1H correlation experiments. The ^13C NMR signals of Conformer A detected by ^1H-^13C HSQC and ^1H-^13C HMBC spectroscopy: ^13C{^1H} NMR (101 MHz, DMSO-d6) δ 16.98, 31.68, 34.80, 37.89, 55.85, 56.35, 64.07, 65.27, 66.70, 68.15, 98.84, 118.56, 118.86, 134.84, 159.78. The ^13C NMR signals of Conformer B detected by ^1H-^13C HSQC and ^1H-^13C HMBC spectroscopy: ^13C{^1H} NMR (101 MHz, DMSO-d6) δ 17.24, 32.01, 36.73, 37.27, 56.13, 56.31, 63.56, 64.07, 68.53, 69.85, 99.05, 118.68, 118.84, 135.99, 160.62. ^195Pt NMR (86 MHz, DMSO-d6) δ−1989 (br). […]

For `COc1cccc2c1C(=O)c1c(O)c3c(c(O)c1C2=O)CC(O)(C(=O)CO)CC3OC1CC(N)C(N)C(C)O1.O=C1[O][Pt][O]C1=O` (centres unmarked) [DoxPt, Doxaliplatin], the “Solubility in DMF” value (DMF) is given as “low solubility”. For the same compound, the “Solubility in DMSO-d6” value (DMSO-d6) was “relatively high solubility”.
